Measured values from patent US10071976B2, “Small molecule fatty acid synthase inhibitors” (Sanford Burnham Prebys Medical Discovery Institute, priority 2014, dated 2018).

molecular target: FASN-TE (Homo sapiens, UniProt P49327); assay: In-vitro biochemical assay measuring FAS-TE inhibition (OMFH substrate, fluorescence)
Method: Min wells: Substrate+No enzyme+DMSO, Max wells: Substrate+Enzyme+DMSO, Sample wells: Substrate+Enzyme+Test compounds, Reference compound: Orlistat (make a fresh 10 mM stock in DMSO each time). 384-well black, low-volume plate (Greiner #784076)
Assay Protocol: • 1) ECHO transfer 160 nL of 125× Compound (or DMSO for control wells) per well. • 2) For Max and Sample wells: Add 10 μL of Enzyme (2×; 1.8 μM) prepared in RXN Buffer. For Min wells: Add 10 μL of RXN Buffer (No Enzyme). • 3) For all wells: Add 10 μL of Substrate (2×; 20 μM) prepared in diH2O+10% DMSO. • 4) Centrifuge plate for 1 minute at 1,000 rpm. • 5) Measure fluorescence every 5 minutes for 1-1.5 hours using the BMG POLARstar (ex 485 nm/em 520 nm; Gain=1015; 25 flashes). • 6) All volumes can be adjusted but the final DMSO concentration should be kept at about 6%.
Data Analysis: • 1) Calculate slopes and express as % Activity (Min wells=0%; Max wells=100%). • 2) Then, using Prism, calculate the IC50 values.

Sequence of FASN-TE (P49327 2207-2511 limits assumed): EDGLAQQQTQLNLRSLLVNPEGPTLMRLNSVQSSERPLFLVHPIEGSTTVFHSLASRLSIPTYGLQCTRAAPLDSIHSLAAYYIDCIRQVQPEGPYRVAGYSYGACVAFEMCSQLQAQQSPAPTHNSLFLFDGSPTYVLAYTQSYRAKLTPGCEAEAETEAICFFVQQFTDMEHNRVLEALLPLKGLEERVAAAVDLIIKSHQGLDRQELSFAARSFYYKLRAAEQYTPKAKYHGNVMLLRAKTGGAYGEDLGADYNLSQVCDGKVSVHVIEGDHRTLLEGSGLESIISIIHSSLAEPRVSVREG

Row | Compound | IC50 [µM]
1 | O=C(COc1cccc(Cl)c1)Nc1nc(-c2ccc(S(=O)(=O)N3CCOCC3)cc2)cs1 [Compound 2] | 4.5
2 | COc1ccccc1C(=O)Nc1nc(-c2ccc(S(=O)(=O)N3CCOCC3)cc2)cs1 [Compound 5] | 11.9
3 | CC(C)C(=O)Nc1nc(-c2ccc(S(=O)(=O)N3CCOCC3)cc2)cs1 [Compound 6] | 0.82
4 | CC(C)CC(=O)Nc1nc(-c2ccc(S(=O)(=O)N3CCOCC3)cc2)cs1 [Compound 7] | 11.6
5 | O=C(Nc1nc(-c2ccc(S(=O)(=O)N3CCOCC3)cc2)cs1)c1cccs1 [Compound 10] | 32.9
6 | O=C(Nc1nc(-c2ccc(S(=O)(=O)N3CCOCC3)cc2)cs1)c1ccco1 [Compound 11] | 37.4
7 | CCCCC(=O)Nc1nc(-c2ccc(S(=O)(=O)N3CCSCC3)cc2)cs1 [Compound 12] | 0.71
8 | CC(=O)Nc1nc(-c2ccc(S(=O)(=O)N3CCSCC3)cc2)cs1 [Compound 13] | > 80
9 | CCC(=O)Nc1nc(-c2ccc(S(=O)(=O)N3CCOCC3)cc2)cs1 [Compound 14] | 4.5
10 | O=C(Nc1nc(-c2ccc(S(=O)(=O)N3CCOCC3)cc2)cs1)C1CC1 [Compound 17] | 5.2
11 | O=C(Nc1nc(-c2ccc(S(=O)(=O)N3CCOCC3)cc2)cs1)C1CCC1 [Compound 18] | 3.6
12 | O=C(Nc1nc(-c2ccc(S(=O)(=O)N3CCOCC3)cc2)cs1)C1CCCC1 [Compound 19] | > 80
13 | CC(C)(C)OC(=O)Nc1nc(-c2ccc(S(=O)(=O)N3CCOCC3)cc2)cs1 [Compound 21] | 29
14 | CC1CCN(S(=O)(=O)c2ccc(-c3csc(NC(=O)C(C)C)n3)cc2)CC1 [Compound 24] | 0.66
15 | CCC(=O)Nc1nc(-c2ccc(S(=O)(=O)N3CCCC3)cc2)cs1 [Compound 26] | 0.65
16 | CC(C)C(=O)Nc1nc(-c2ccc(S(=O)(=O)N3CCCC3)cc2)cs1 [Compound 27] | 0.277
17 | O=C(Nc1nc(-c2ccc(S(=O)(=O)N3CCCC3)cc2)cs1)C1CC1 [Compound 28] | 0.56
18 | O=C(Nc1nc(-c2ccc(S(=O)(=O)N3CCCC3)cc2)cs1)C1CCC1 [Compound 29] | 0.4
19 | CCCCC(=O)Nc1nc(-c2ccc(S(=O)(=O)N(CC)CC)cc2)cs1 [Compound 32] | 0.172
20 | CCN(CC)S(=O)(=O)c1ccc(-c2csc(NC(=O)C(C)C)n2)cc1 [Compound 33] | 0.28
21 | CCN(CC)S(=O)(=O)c1ccc(-c2csc(NC(=O)C3CC3)n2)cc1 [Compound 34] | 2.3
22 | CCN(CC)S(=O)(=O)c1ccc(-c2csc(NC(=O)C3CC3)n2)cc1 [Compound 35] | 0.99
23 | CCN(CC)S(=O)(=O)c1ccc(-c2csc(NC(=O)C3CCCC3)n2)cc1 [Compound 36] | 1.2

Continued, values first:

Row | IC50 [µM] | Compound
24 | 0.42 | O=C(COc1ccccc1)Nc1nc(-c2ccc(S(=O)(=O)N3CCOCC3)cc2)cs1 [Compound 3]
25 | 4.68 | O=C(Nc1nc(-c2ccc(S(=O)(=O)N3CCCC3)cc2)cs1)c1ccco1 [Compound 4]
26 | 0.2 | CCCCC(=O)Nc1nc(-c2ccc(S(=O)(=O)N3CCCC3)cc2)cs1 [Compound 8]
27 | 13.4 | CC(=O)Nc1nc(-c2ccc(S(=O)(=O)N3CCOCC3)cc2)cs1 [Compound 9]
28 | 0.31 | CCC(C)C(=O)Nc1nc(-c2ccc(S(=O)(=O)N3CCOCC3)cc2)cs1 (stereo not shown) [Compound 15]
29 | > 80 | O=C(Nc1nc(-c2ccc(S(=O)(=O)N3CCOCC3)cc2)cs1)C1CCCCC1 [Compound 20]
30 | > 80 | CCC(=O)Nc1nc(-c2ccc(S(=O)(=O)N3CCC(C)CC3)cc2)cs1 [Compound 23]
31 | > 80 | CC1CCN(S(=O)(=O)c2ccc(-c3csc(NC(=O)C4CC4)n3)cc2)CC1 [Compound 25]
32 | 0.73 | O=C(Nc1nc(-c2ccc(S(=O)(=O)N3CCCC3)cc2)cs1)C1CCCC1 [Compound 30]
33 | 4.25 | CCC(=O)Nc1nc(-c2ccc(S(=O)(=O)N(CC)CC)cc2)cs1 [Compound 31]
34 | 2.9 | CCN(CC)S(=O)(=O)c1ccc(-c2csc(NC(=O)C3CCCCC3)n2)cc1 [Compound 38]
